Earlier results as cited in EP3111929B1, “ORAL DISINTEGRATING FILM FORMULATION CONTAINING TADALAFIL AND PREPARATION METHOD THEREFOR” (Wooshin Labottach Co., Ltd., priority 2014, dated 2015).

Key:
PDE5/PDE6 = settings: compared with sildenafil; background statement
[1] = water; background statement

CN1CC(=O)N2[C@H](c3ccc4c(c3)OCO4)c3[nH]c4ccccc4c3C[C@@H]2C1=O [tadalafil, (6R, 12aR)-6-(1,3-benzodioxol-5-yl)-2,3,6,7,12,12a-hexahydro-2-methyl-pyrazino[1',2':1,6]p yrido[3,4-b]indole-1,4-dion]
selectivity of PDE5/PDE6 (PDE5/PDE6): better than sildenafil
solubility [1]: actually water-insoluble
